What was measured:
[1] = target: T1, plant derived recombinant AChE (rAChE) (Homo sapiens, UniProt P22303); assay: Inhibition of plant-derived recombinant AChE (Ellman assay); format: biochemical; settings: for inhibition of plant derived rAChE: 1 mM acetylthiocholine
T1 construct: We expressed the engineered AChE-E4 form, encoded by exons 2-4 of the human gene; made in house; host or cells: transgenic tomato (Lycopersicum esculentum cv. Micro-Tom), cleared leaf extracts

[2] = target: T2, human AChE derived from erythrocytes (Homo sapiens, UniProt P22303); assay: Inhibition of AChE from human erythrocytes (Ellman assay); format: biochemical
T2 construct: a commercially available preparation of AChE from human erythrocytes; purchased; host or cells: human erythrocytes

[3] = Heat and storage stability of AChE activity in crude leaf extracts; format: physicochemical
Method: To evaluate the heat stability of the enzyme, plant extracts were incubated for 30 minutes at the indicated temperatures and then assayed as described above. Stability of the enzymatic activity was determined at 4 degrees C. and at 25 degrees C. by incubating plant extracts at the respective temperatures and assaying samples at the indicated time points.
The plant-derived hAChE in total soluble protein extracts retained 50% of its initial activity after incubation at 42 degrees for at least 30 minutes (FIG. 5A). Crude leaf extracts were incubated at the indicated temperatures for 30 minutes and then subjected to Ellman's AChE assay. […] The activity was very stable at 4 degrees C., with only 20% loss after 24 hours (FIG. 5B). Crude leaf extracts were incubated at 4 degrees C. or at 25 degrees C. for the indicated time periods and then assayed for AChE activity.

[4] = Km determination of plant-derived hAChE (Ellman assay, Lineweaver-Burk analysis); format: biochemical; settings: acetylthiocholine 0.05-50 mM; four expressing lines
Method: Scaled-down microtiter plate Ellman assays were performed, according to standard methods, which are well known in the art. […] At the end of the 30 minute incubation period, 100 μl of 1 mM 5-5′-dithio-bis(2-nitrobenzoate) (Ellman's reagent) and 2 mM acetylthiocholine in assay buffer was added. Hydrolysis was monitored by measuring optical density at 405 nm at 5 minute intervals for 30 minutes, using a microtiter plate spectrophotometer, plotted against time, and initial rates were calculated from the slope of the linear portion of the graph. Net hydrolysis rates were calculated by subtracting the rates measured in the presence of BW284c15 from those obtained in its absence. To determine the Km, the concentration of the acetylthiocholine substrate in the Ellman's reagent was varied in the range of 0.05-50 mM.

T2 sequence (P22303 32-617 isoform P22303-2 limits assumed): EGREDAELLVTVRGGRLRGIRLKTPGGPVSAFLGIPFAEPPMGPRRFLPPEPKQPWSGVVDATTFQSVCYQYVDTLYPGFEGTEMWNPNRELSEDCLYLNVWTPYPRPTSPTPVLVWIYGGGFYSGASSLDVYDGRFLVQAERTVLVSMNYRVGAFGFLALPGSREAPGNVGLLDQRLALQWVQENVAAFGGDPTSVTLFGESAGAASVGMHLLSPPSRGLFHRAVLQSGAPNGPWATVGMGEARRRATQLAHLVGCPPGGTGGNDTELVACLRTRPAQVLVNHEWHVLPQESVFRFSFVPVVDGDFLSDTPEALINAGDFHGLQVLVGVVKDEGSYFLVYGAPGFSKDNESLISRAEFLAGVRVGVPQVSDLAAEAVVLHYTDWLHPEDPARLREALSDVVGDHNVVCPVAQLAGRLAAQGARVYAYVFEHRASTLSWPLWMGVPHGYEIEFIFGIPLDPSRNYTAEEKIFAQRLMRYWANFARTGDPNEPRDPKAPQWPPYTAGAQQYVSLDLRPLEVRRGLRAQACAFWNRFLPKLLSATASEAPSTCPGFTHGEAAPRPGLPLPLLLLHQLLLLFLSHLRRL

**Q.** Which results are given for `CC(C)NP(=O)(NC(C)C)OP(=O)(NC(C)C)NC(C)C` [Iso-OMPA, tetraisopropyl pyrophosphoramide]?
**A.** inhibition of plant-derived enzyme ([1]; at 10 mM): only partial inhibition; effect on plant-derived enzyme ([1]; up to 100 μM): no effect; inhibition of erythrocyte-derived enzyme ([2]; at 10 mM): only partial inhibition; effect on erythrocyte-derived enzyme ([2]; up to 100 μM): no effect

**Q.** With `O=S(=O)(F)Cc1ccccc1` [PMSF, phehylmethylsulfonyl fluoride] as the molecule, how does the “inhibition of plant derived rAChE” value [1] read?
**A.** Its value is “can inhibit”.

**Q.** Which “inhibition of plant derived rAChE” value [1] does the source give for `CN(C)C(=O)Oc1cccc([N+](C)(C)C)c1` [neostigmine] here?
**A.** The value was “can inhibit”.

**Q.** Which “susceptibility of plant-derived E4 enzyme relative to equivalent recombinant enzyme from transgenic mice” value [1] does the source give for `CCOP(=O)(OCC)Oc1ccc([N+](=O)[O-])cc1` [paraoxon, diethyl p-nitrophenyl phosphate] here?
**A.** The value was “somewhat less susceptible”.

**Q.** What about the “inhibition of plant derived rAChE” value [1] of the same molecule?
**A.** The value was “can inhibit”.

B1: plant-derived hAChE (protein, UniProt P22303 32-614, looked up)
Acetylcholinesterase: EGREDAELLVTVRGGRLRGIRLKTPGGPVSAFLGIPFAEPPMGPRRFLPPEPKQPWSGVVDATTFQSVCYQYVDTLYPGFEGTEMWNPNRELSEDCLYLNVWTPYPRPTSPTPVLVWIYGGGFYSGASSLDVYDGRFLVQAERTVLVSMNYRVGAFGFLALPGSREAPGNVGLLDQRLALQWVQENVAAFGGDPTSVTLFGESAGAASVGMHLLSPPSRGLFHRAVLQSGAPNGPWATVGMGEARRRATQLAHLVGCPPGGTGGNDTELVACLRTRPAQVLVNHEWHVLPQESVFRFSFVPVVDGDFLSDTPEALINAGDFHGLQVLVGVVKDEGSYFLVYGAPGFSKDNESLISRAEFLAGVRVGVPQVSDLAAEAVVLHYTDWLHPEDPARLREALSDVVGDHNVVCPVAQLAGRLAAQGARVYAYVFEHRASTLSWPLWMGVPHGYEIEFIFGIPLDPSRNYTAEEKIFAQRLMRYWANFARTGDPNEPRDPKAPQWPPYTAGAQQYVSLDLRPLEVRRGLRAQACAFWNRFLPKLLSATDTLDEAERQWKAEFHRWSSYMVHWKNQFDHYSKQDRCSDL
modifications: plant-expressed
**Q.** With B1 as the molecule, how does the “loss of AChE activity” value ([3]; 4 degrees C., after 24 hours) read?
**A.** Its value is 20%.

**Q.** What about the initial activity retained ([3]; 42 degrees, at least 30 minutes, total soluble protein extract) of the same molecule?
**A.** The initial activity retained was 50%.

**Q.** And the “residual AChE activity” value ([3]; room temperature (~25 degrees C.), after 25 hours)?
**A.** Its value is 20%.

**Q.** What about the Km [4] of the same molecule?
**A.** The Km was 440 ± 100 µM.
